pIC50: −log10 of the molar value. Each block holds one molecule with its values, some of them ahead of it.
System: 323965-272-R-J2-PDC complex spheroid growth, % test/control
Experiment: Anticancer human tumor 323965-272-R-J2-PDC patient-derived pancreatic carcinoma cell line growth inhibition [Asc]
Settings: for pIC50: curve of first compound; for viability, T/C: stronger effect = lower value
Method in brief: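 Concentration series start at each agent's clinical Cmax, or at 10 microM when none is established, and drop in half-log steps; agents are applied alone or together to complex spheroids built with HUVEC and hMSC.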
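Also: compound exposure lasted 7 days starting three days after spheroid seeding.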
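For viability, T/C in this document: 100% = DMSO vehicle control wells with viability set relative to vehicle.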

- pIC50 (second compound 0.0316 µM): < 6.52
- pIC50 (second compound 0.1 µM): < 6.52
- pIC50 (second compound 0.316 µM): < 6.52
- pIC50 (second compound 1 µM): 6.69
- pIC50 (second compound 3.16 µM): 6.94
- pIC50 (second compound 10 µM): 7.20
SMILES: NC(=O)C(=Cn1cnc(-c2cc(C(F)(F)F)cc(C(F)(F)F)c2)n1)c1cncnc1 + Cc1c(S(C)(=O)=O)c(-c2cc(F)cc(N3CCN(c4ccc(NS(=O)(=O)c5ccc(NC(CCN6CCC(C(=O)OCCCP(=O)(O)O)CC6)CSc6ccccc6)c(S(=O)(=O)C(F)(F)F)c5)cc4)CC3)c2)c(-c2ccc(Cl)cc2)n1C(C)C
- viability, T/C (second compound 0.0316 µM, first compound 0.000949 µM): 111%
- viability, T/C (second compound 0.0316 µM, first compound 0.003 µM): 96.9%
- viability, T/C (second compound 0.0316 µM, first compound 0.00949 µM): 115%
- viability, T/C (second compound 0.0316 µM, first compound 0.03 µM): 89.1%
- viability, T/C (second compound 0.0316 µM, first compound 0.0949 µM): 81.5%
- viability, T/C (second compound 0.0316 µM, first compound 0.3 µM): 55.8%
- viability, T/C (second compound 0.1 µM, first compound 0.000949 µM): 95.2%
- viability, T/C (second compound 0.1 µM, first compound 0.003 µM): 92.8%
- viability, T/C (second compound 0.1 µM, first compound 0.00949 µM): 92%
- viability, T/C (second compound 0.1 µM, first compound 0.03 µM): 94.8%
- viability, T/C (second compound 0.1 µM, first compound 0.0949 µM): 78%
- viability, T/C (second compound 0.1 µM, first compound 0.3 µM): 53.8%
- viability, T/C (second compound 0.316 µM, first compound 0.000949 µM): 94%
- viability, T/C (second compound 0.316 µM, first compound 0.003 µM): 100%
- viability, T/C (second compound 0.316 µM, first compound 0.00949 µM): 93.3%
- viability, T/C (second compound 0.316 µM, first compound 0.03 µM): 84.9%
- viability, T/C (second compound 0.316 µM, first compound 0.0949 µM): 76.1%
- viability, T/C (second compound 0.316 µM, first compound 0.3 µM): 49.8%
- viability, T/C (second compound 1 µM, first compound 0.000949 µM): 91%
- viability, T/C (second compound 1 µM, first compound 0.003 µM): 88.6%
- viability, T/C (second compound 1 µM, first compound 0.00949 µM): 80.2%
- viability, T/C (second compound 1 µM, first compound 0.03 µM): 77.6%
- viability, T/C (second compound 1 µM, first compound 0.0949 µM): 64.4%
- viability, T/C (second compound 1 µM, first compound 0.3 µM): 42.6%
- viability, T/C (second compound 3.16 µM, first compound 0.000949 µM): 79%
- viability, T/C (second compound 3.16 µM, first compound 0.003 µM): 78.1%
- viability, T/C (second compound 3.16 µM, first compound 0.00949 µM): 76%
- viability, T/C (second compound 3.16 µM, first compound 0.03 µM): 63.1%
- viability, T/C (second compound 3.16 µM, first compound 0.0949 µM): 55%
- viability, T/C (second compound 3.16 µM, first compound 0.3 µM): 32.6%
- viability, T/C (second compound 10 µM, first compound 0.000949 µM): 69.9%
- viability, T/C (second compound 10 µM, first compound 0.003 µM): 68.7%
- viability, T/C (second compound 10 µM, first compound 0.00949 µM): 63.1%
- viability, T/C (second compound 10 µM, first compound 0.03 µM): 63.6%
- viability, T/C (second compound 10 µM, first compound 0.0949 µM): 43%
- viability, T/C (second compound 10 µM, first compound 0.3 µM): 30.3%

- pIC50 (second compound 0.0316 µM): < 7.00
- pIC50 (second compound 0.1 µM): < 7.00
- pIC50 (second compound 0.316 µM): < 7.00
- pIC50 (second compound 1 µM): < 7.00
- pIC50 (second compound 3.16 µM): < 7.00
- pIC50 (second compound 10 µM): < 7.00
SMILES: NC1CCC(NC2CC2c2ccccc2)CC1 (centres undefined) + Cc1c(S(C)(=O)=O)c(-c2cc(F)cc(N3CCN(c4ccc(NS(=O)(=O)c5ccc(NC(CCN6CCC(C(=O)OCCCP(=O)(O)O)CC6)CSc6ccccc6)c(S(=O)(=O)C(F)(F)F)c5)cc4)CC3)c2)c(-c2ccc(Cl)cc2)n1C(C)C
- viability, T/C (second compound 0.0316 µM, first compound 0.000316 µM): 105%
- viability, T/C (second compound 0.0316 µM, first compound 0.001 µM): 107%
- viability, T/C (second compound 0.0316 µM, first compound 0.00316 µM): 107%
- viability, T/C (second compound 0.0316 µM, first compound 0.01 µM): 109%
- viability, T/C (second compound 0.0316 µM, first compound 0.0316 µM): 122%
- viability, T/C (second compound 0.0316 µM, first compound 0.1 µM): 112%
- viability, T/C (second compound 0.1 µM, first compound 0.000316 µM): 105%
- viability, T/C (second compound 0.1 µM, first compound 0.001 µM): 99.2%
- viability, T/C (second compound 0.1 µM, first compound 0.00316 µM): 120%
- viability, T/C (second compound 0.1 µM, first compound 0.01 µM): 113%
- viability, T/C (second compound 0.1 µM, first compound 0.0316 µM): 109%
- viability, T/C (second compound 0.1 µM, first compound 0.1 µM): 99%
- viability, T/C (second compound 0.316 µM, first compound 0.000316 µM): 108%
- viability, T/C (second compound 0.316 µM, first compound 0.001 µM): 101%
- viability, T/C (second compound 0.316 µM, first compound 0.00316 µM): 96.6%
- viability, T/C (second compound 0.316 µM, first compound 0.01 µM): 103%
- viability, T/C (second compound 0.316 µM, first compound 0.0316 µM): 104%
- viability, T/C (second compound 0.316 µM, first compound 0.1 µM): 102%
- viability, T/C (second compound 1 µM, first compound 0.000316 µM): 94.4%
- viability, T/C (second compound 1 µM, first compound 0.001 µM): 100%
- viability, T/C (second compound 1 µM, first compound 0.00316 µM): 93.9%
- viability, T/C (second compound 1 µM, first compound 0.01 µM): 106%
- viability, T/C (second compound 1 µM, first compound 0.0316 µM): 96.5%
- viability, T/C (second compound 1 µM, first compound 0.1 µM): 92.2%
- viability, T/C (second compound 3.16 µM, first compound 0.000316 µM): 84.5%
- viability, T/C (second compound 3.16 µM, first compound 0.001 µM): 82.1%
- viability, T/C (second compound 3.16 µM, first compound 0.00316 µM): 81.5%
- viability, T/C (second compound 3.16 µM, first compound 0.01 µM): 76.5%
- viability, T/C (second compound 3.16 µM, first compound 0.0316 µM): 90%
- viability, T/C (second compound 3.16 µM, first compound 0.1 µM): 81.2%
- viability, T/C (second compound 10 µM, first compound 0.000316 µM): 83%
- viability, T/C (second compound 10 µM, first compound 0.001 µM): 70.1%
- viability, T/C (second compound 10 µM, first compound 0.00316 µM): 66.5%
- viability, T/C (second compound 10 µM, first compound 0.01 µM): 84%
- viability, T/C (second compound 10 µM, first compound 0.0316 µM): 81.9%
- viability, T/C (second compound 10 µM, first compound 0.1 µM): 73%

Reference: PubChem BioAssay AID1963425 (Molecular Pharmacology Branch, DTP, NCI, 2024)
